From the supplement of paper PMC11061612

How the values were obtained:
[1] = tested on: FADU (Head and Neck Carcinoma); assay: Bliss excess, mean over the matrix (fraction); higher = more synergy
Outline: (§1)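 Bliss excess equals the observed combination effect minus the expected value EA + EB − EA·EB, where EA and EB are the effects of each agent alone. Combination Emax is the second-highest inhibition within the matrix. Inhibition was scaled from CellTiter-Glo 2.0 luminescence, with 0 set by vehicle wells and 1 by blank wells, after 72 hours of two-drug dosing of cells plated in 1536-well plates.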

[2] = tested on: OAW-42 (Ovarian Carcinoma); assay: as above
Outline: as §1

[3] = tested on: SK-PN-DW (Other Solid Carcinomas); assay: as above
Outline: as §1

SF268 (Low Grade Glioma) = assay: as above
Outline: as §1

[4] = tested on: COLO-680N (Esophageal Squamous Cell Carcinoma); assay: as above
Outline: as §1

WM793B (Melanoma) = assay: as above
Outline: as §1

[5] = tested on: HSC-39 (Gastric Carcinoma); assay: as above
Outline: as §1

[6] = tested on: SU-DHL-10 (B-Cell Non-Hodgkin's Lymphoma); assay: as above
Outline: as §1

[7] = tested on: HEC-1 (Endometrial Carcinoma); assay: as above
Outline: as §1

LN-229 (Glioblastoma) = assay: as above
Outline: as §1

[8] = tested on: LB996-RCC (Kidney Carcinoma); assay: as above
Outline: as §1

[9] = tested on: REH (B-Lymphoblastic Leukemia); assay: as above
Outline: as §1

[10] = tested on: OPM-2 (Plasma Cell Myeloma); assay: as above
Outline: as §1

[11] = tested on: PANC-03-27 (Pancreatic Carcinoma); assay: as above
Outline: as §1

[12] = tested on: KE-37 (T-Lymphoblastic Leukemia); assay: as above
Outline: as §1

[13] = tested on: PC-3_[JPC-3] (Lung Adenocarcinoma); assay: as above
Outline: as §1

[14] = tested on: CAL-120 (Breast Carcinoma); assay: as above
Outline: as §1

[15] = tested on: 23132-87 (Gastric Carcinoma); assay: combination Emax (second highest fraction inhibited in the dose matrix, 72 h); higher = more inhibition; extreme values may be limits of the assay
Outline: as §1

[16] = tested on: PC-3_[JPC-3] (Lung Adenocarcinoma); assay: as above
Outline: as §1

[17] = tested on: CAL-120 (Breast Carcinoma); assay: as above
Outline: as §1

Row | SMILES | Bliss excess [1] | Bliss excess [2] | Bliss excess [3] | Bliss excess (SF268 (Low Grade Glioma)) | Bliss excess [4] | Bliss excess (WM793B (Melanoma)) | Bliss excess [5] | Bliss excess [6] | Bliss excess [7] | Bliss excess (LN-229 (Glioblastoma)) | Bliss excess [8] | Bliss excess [9] | Bliss excess [10] | Bliss excess [11] | Bliss excess [12] | Bliss excess [13] | Bliss excess [14] | combination Emax [15] | combination Emax [16] | combination Emax [17]
1 | CN(CCO)CC[C@H](CSc1ccccc1)Nc1ccc(S(=O)(=O)NC(=O)c2ccc(N3CCC([C@@H](O)c4ccccc4-c4ccc(Cl)cc4)CC3)cc2)cc1S(=O)(=O)C(F)(F)F [AZD4320] + C1CN(CCC1(C(=O)N[C@@H](CCO)C2=CC=C(C=C2)Cl)N)C3=NC=NC4=C3C=CN4 [Capivasertib] (first compound max 1 µM, 7x7, partner max 3 µM) | -0.0268 | -0.0274 | -0.0588 | -0.0502 | -0.0411 | -0.0384 | -0.0072 | 0.0129 | -0.0759 | -0.0443 | 0.0014 | 0.0197 | -0.0088 | -0.0481 | 0.0185 | -0.0961 | -0.0649 | 0.221 | 0.152 | –
2 | COc1nnc2ccc(N3CCC(c4ccc(OCCN5CCN(C)C(=O)[C@H]5C)cc4)CC3)nn12 [AZD5153] + CN(CC[C@H](CSC1=CC=CC=C1)NC2=C(C=C(C=C2)S(=O)(=O)NC(=O)C3=CC=C(C=C3)N4CCC(CC4)[C@H](C5=CC=CC=C5C6=CC=C(C=C6)Cl)O)S(=O)(=O)C(F)(F)F)CCO [AZD4320] (first compound max 1 µM, 7x7, partner max 1 µM) | 0.0146 | 0.0913 | – | -0.0183 | – | -0.0257 | – | -0.0269 | 0.0486 | 0.0357 | 0.0253 | – | – | – | 0.0222 | – | 0.0415 | 0.349 | – | 0.919
3 | Cc1cc2ncnn2cc1Nc1ncc2c(n1)n(C1CCOCC1)c(=O)n2C [AZD7648] + O=C(c1cc(Cc2n[nH]c(=O)c3ccccc23)ccc1F)N1CCN(C(=O)C2CC2)CC1 [Olaparib] (first compound max 10 µM, 7x7, partner max 10 µM) | 0.0107 | – | 0.0223 | -0.0274 | -0.0435 | -0.0136 | -0.0083 | -0.0164 | 0.0079 | -0.0816 | -0.0152 | -0.0373 | -0.0373 | -0.0149 | 0.0309 | -0.0148 | -0.0322 | 0.239 | 0.19 | 0.149
4 | COc1cccc2c1C(=O)c1c(O)c3c(c(O)c1C2=O)C[C@@](O)(C(=O)CO)C[C@@H]3O[C@H]1C[C@H](N)[C@H](O)[C@H](C)O1 [Doxorubicin] + Cc1cc2ncnn2cc1Nc1ncc2c(n1)n(C1CCOCC1)c(=O)n2C [AZD7648] (first compound max 1 µM, 7x7, partner max 10 µM) | 0.126 | – | 0.105 | 0.0462 | 0.0063 | 0.0438 | 0.0909 | 0.0982 | 0.004 | -0.0159 | 0.0561 | 0.177 | 0.0221 | 0.0557 | 0.0912 | -0.027 | 0.0064 | 0.82 | 0.57 | 0.47
5 | CS(=O)(=O)CCNCc1ccc(-c2ccc3ncnc(Nc4ccc(OCc5cccc(F)c5)c(Cl)c4)c3c2)o1 [Lapatinib] + NC1(c2ccc(-c3nc4ccn5c(=O)[nH]nc5c4cc3-c3ccccc3)cc2)CCC1 [MK-2206] (first compound max 10 µM, 7x7, partner max 10 µM) | – | -0.0089 | 0.1 | – | 0.0426 | – | 0.104 | – | – | -0.0959 | – | 0.0194 | 0.0183 | -0.0064 | – | -0.0174 | – | – | 0.927 | –
6 | COc1cccc(OCCCN)c1-c1cc(Nc2cnc(C#N)cn2)n[nH]1 [Prexasertib] + C=CCn1c(=O)c2cnc(Nc3ccc(N4CCN(C)CC4)cc3)nc2n1-c1cccc(C(C)(C)O)n1 [AZD1775] (first compound max 1 µM, partner max 1 µM) | 0.084 | – | 0.0025 | 0.0619 | -0.0054 | 0.0129 | 0.05 | 0.0558 | 0.109 | -0.0177 | 0.0427 | 0.114 | 0.0569 | -0.0327 | 0.0311 | 0.0258 | 0.0551 | 0.939 | 0.588 | 0.685
7 | COc1cccc(OCCCN)c1-c1cc(Nc2cnc(C#N)cn2)n[nH]1 [Prexasertib] + CN(C)CCCOc1ccc(-c2ccc3ncc4c(c3c2)n(C2CCOCC2)c(=O)n4C)cn1 [AZD0156] (first compound max 1 µM, 7x7, partner max 1 µM) | -0.0256 | – | -0.0141 | 0.0592 | -0.0393 | -0.0265 | -0.0196 | -0.049 | -0.0146 | -0.035 | 0.0028 | 0.0171 | 0.0204 | -0.0704 | -0.0022 | -0.0526 | 0.0088 | 0.926 | 0.384 | 0.456
8 | COc1cccc(OCCCN)c1-c1cc(Nc2cnc(C#N)cn2)n[nH]1 [Prexasertib] + C[C@@H]1COCCN1C2=NC(=NC(=C2)C3(CC3)[S@](=N)(=O)C)C4=C5C=CNC5=NC=C4 [AZD6738] (first compound max 1 µM, 7x7, partner max 10 µM) | -0.0333 | – | -0.0438 | -0.0421 | 0.0342 | -0.05 | -0.0067 | -0.0067 | -0.0434 | -0.0577 | 0.0355 | 0.0032 | -0.0663 | -0.0577 | 0.0043 | 0.0576 | 0.0093 | 0.908 | 0.426 | 0.446
9 | COc1cccc(OCCCN)c1-c1cc(Nc2cnc(C#N)cn2)n[nH]1 [Prexasertib] + Cc1cc2ncnn2cc1Nc1ncc2c(n1)n(C1CCOCC1)c(=O)n2C [AZD7648] (first compound max 1 µM, 7x7, partner max 10 µM) | -0.0383 | – | -0.0503 | 0.0078 | -0.0491 | -0.0169 | 0.008 | -0.045 | 0.0762 | -0.0596 | 0.0292 | -0.0041 | -0.0341 | -0.0606 | -0.006 | -0.0103 | 0.0045 | 0.939 | 0.324 | 0.512
10 | COc1cccc(OCCCN)c1-c1cc(Nc2cnc(C#N)cn2)n[nH]1 [Prexasertib] + O=C(c1cc(Cc2n[nH]c(=O)c3ccccc23)ccc1F)N1CCN(C(=O)C2CC2)CC1 [Olaparib] (first compound max 1 µM, 7x7, partner max 10 µM) | 0.0354 | – | -0.0689 | 0.0208 | -0.0652 | -0.0688 | 0.0127 | 0.0083 | -0.0535 | -0.181 | -0.0145 | -0.0271 | -0.0628 | -0.0102 | 0.0073 | -0.0525 | -0.0552 | 0.87 | 0.31 | 0.526
11 | COc1cc2c(cc1OCCCCCOc1cc3c(cc1OC)C(=O)N1C=C(C)C[C@H]1C=N3)N=C[C@@H]1CC(C)=CN1C2=O [SG3199] + O=C(c1cc(Cc2n[nH]c(=O)c3ccccc23)ccc1F)N1CCN(C(=O)C2CC2)CC1 [Olaparib] (first compound max 0.001 µM, 7x7, partner max 10 µM) | -0.0009 | – | -0.0295 | -0.0297 | -0.043 | -0.0198 | -0.0067 | -0.0177 | 0.0483 | -0.0454 | 0.0077 | -0.0099 | -0.047 | -0.062 | 0.0055 | -0.0368 | -0.0329 | 0.3 | 0.193 | 0.142
12 | CCc1c2c(nc3ccc(O)cc13)-c1cc3c(c(=O)n1C2)COC(=O)[C@]3(O)CC [SN-38] + CN(C)CCCOc1ccc(-c2ccc3ncc4c(c3c2)n(C2CCOCC2)c(=O)n4C)cn1 [AZD0156] (first compound max 0.3 µM, 7x7, partner max 1 µM) | -0.0007 | – | 0.0355 | 0.0609 | 0.0306 | -0.0295 | 0.0344 | -0.0242 | -0.0374 | -0.0305 | 0.0011 | -0.0093 | 0.0104 | -0.0071 | 0.0603 | -0.0551 | -0.0792 | 0.845 | 0.732 | 0.381
13 | C[C@@H](c1ccc2nccn2c1)n1nnc2ncc(-c3cnn(C)c3)nc21 [Savolitinib] + CN(CC[C@H](CSC1=CC=CC=C1)NC2=C(C=C(C=C2)S(=O)(=O)NC(=O)C3=CC=C(C=C3)N4CCC(CC4)[C@H](C5=CC=CC=C5C6=CC=C(C=C6)Cl)O)S(=O)(=O)C(F)(F)F)CCO [AZD4320] (first compound max 1 µM, 7x7, partner max 1 µM) | -0.0378 | -0.0451 | – | -0.0491 | – | -0.0644 | – | -0.0067 | -0.027 | -0.0833 | -0.0392 | – | – | – | -0.0327 | – | -0.0325 | 0.338 | – | 0.65
